Experimental data reported in paper PMC12270663, “Cagrilintide lowers bodyweight through brain amylin receptors 1 and 3” (eBioMedicine, 2025).

Legend:
[1] = system: WT and RAMP1/3 KO high fat diet fed mice; assay: Study 3: 3-week treatment, food intake and body weight; format: in vivo, mouse
Procedure: Male mice were housed in a controlled environment maintained at 21 ± 2 °C, under a 12/12 h light–dark cycle (lights off at 11.00 h). Mice had ad libitum access to standard chow (3.14 kcal/g of food; Kliba, Switzerland, cat# 3436) and water, until 3–4 weeks old. Twenty-four WT and twenty-four RAMP 1/3 KO male mice were fed a 60% fat HFD (5.24 kcal/g of food; SSNIFF Spezialdiäten GmbH, Germany, cat# EF D12452) provided ad libitum for 18 weeks. Then mice were fed to a 45% fat HFD (4.73 kcal/g of food; SSNIFF Spezialdiäten GmbH, Germany, cat# EF D12451) provided ad libitum for 6 weeks until the end of the study. The mice were group housed (3–4 mice per cage) until 1 week before the 21-day treatment period. Each cage was equipped with a red plastic house, tissue paper, nest-building material and wood shavings. Prior to the 21-day treatment, mice were injected with vehicle for three days to acclimate to the daily subcutaneous injections and reduce stress associated with the injections.
(§1) Mice were s.c. injected once a day for 3 weeks 1 h before dark onset between 9.00 and 10.00 h. Prior to injection, daily body weight and food intake were measured manually. On the day of sacrifice, mice were anesthetised with pentobarbital (100 mg/kg, i.p., Cantonal Pharmacy of Zurich, Switzerland) 24 h after receiving the last dose of peptide.

[2] = system: area postrema (AP) neurons of WT and RAMP1/3 KO mice; assay: Study 4 cohort 1: cFos positive neurons, AP; format: in vivo, mouse; conditions: second statistical test, Figure 4b
Procedure: Mice were group housed in a controlled environment maintained at 21 ± 2 °C, under a 12/12 h light–dark cycle (lights off at 11.00 h). In the first cohort, 25 male WT and 25 male RAMP1/3 KO mice aged between 12 and 20 week-old were fed chow diet and maintained under group housing condition. In the second cohort, 18 male WT, 18 male RAMP1 KO, 18 male RAMP3 KO and 18 male RAMP1/3 KO mice aged between 10 and 15 week-old were fed chow diet and maintained under group housing condition.
For both cohorts, animals were deeply anesthetised 90 min later (pentobarbital 100 mg/kg, i.p) and transcardially perfused with cold 0.1 M of phosphate buffer (PB) for 1.5 min followed by 4% of paraformaldehyde (PFA) in PB for 2.5 min. Brains were removed and postfixed overnight in 4% of PFA and cryoprotected in 20% of sucrose-PB for 24 h. Brains were frozen in hexane on dry ice and stored at −80 °C until sectioning. Stereological brain sampling of the areas of interest was performed and brain were serially cut on a cryostat (Leica Biosystems, Germany, cat# CM3050S), mounted on Superfrost Plus slides (Thermo Fisher Scientific, Reinach, Switzerland), and cryoprotected in 50% of PB, 30% of ethylene glycol, 20% of glycerol, and subsequently stored at −20 °C.
Blocking of the mouse brain sections was performed with 0.4% Triton–4% normal goat serum in PBS for 2 h at room temperature. AP/NTS and LPBN sections were incubated at 4 °C for 48 h with rabbit anti-Fos antibody (1:500, Cell signalling technology, Switzerland, Cat# 2250, RRID: AB_2247211), and then after PBS washes, incubated with goat anti-rabbit Alexa Fluor CY3 (1:200, LuBio Science GmbH, Switzerland for Jackson Immunoresearch, Cat# 111-165-144) or alexa fluor 488 for 2 h at room temperature. After thorough washing in PBS, the sections were counterstained with DAPI, mounted immediately and coverslipped with Vectashield antifade Mounting Medium (Vectorlabs, Burlingame, USA, cat# H-1400).[40]
Photomicrographs of all sections containing AP, NTS and LPBN were taken at 20× magnification using Zeiss Axio Scan.Z1 slidescanner (Center for Microscopy and Image Analysis UZH, Zeiss, Germany). All images for each study were acquired using the same exposure time. Scanned images were imported into QuPath (QuPath 0.5.0) for quantification. Three to four sections were counted and averaged per area of interest. A polygon tool was used manually to determine the boundary of the region of interest of the brain section. A cell detection tool was used to detect every cell in the section by using a built-in cell segmentation algorithm. The cell detection tool was used on the DAPI channel to make sure that only a cell was recognised and not the background or artefact by system. A detection classifier was created by using the create detection classifier function. The numbers of positive counted DAPI cells containing a cFos signal were automatically counted within the region. The experimental group was blinded to the experimenter during the analysis.

[3] = system: AMYRs and CTR; conditions: cited from earlier work
Source text: In a cellular assay, cagrilintide was confirmed to be a non-selective agonist of the CTR and AMYRs across multiple assays of proximal ...

[4] = system: WT and RAMP1/3 KO high fat diet fed mice; assay: Study 3: body composition by EchoMRI; format: in vivo, mouse; conditions: 150 nmol/kg/d s.c., 3 weeks
Procedure: as §1
Brains were harvested, snap frozen on dry ice and kept at −80 °C until mRNA extraction for next-generation sequencing (NGS) analysis. Blood samples were collected from the right ventricle of the heart during the sacrifice in 1 mL EDTA-coated tubes containing dipeptidyl peptidase-4 inhibitor (10 μL/mL blood; Sigma Aldrich, Switzerland, cat# DPP4-010) and protease inhibitor (30 μL/mL blood; Sigma Aldrich, Switzerland, cat# P2714). After centrifugation, plasma was kept at −80 °C. The mice were stored at −20 °C until body composition analysis was performed.
Lean and fat mass were measured post-mortem using EchoMRI (EchoMRI LLC, USA) at the Zurich Integrative Rodent Physiology (University of Zurich). Calibrations and measurements were performed according to manufacturer's instructions. Two measurements were performed and averaged per mouse. Fat mass and lean mass values are expressed as percent of body weight.

Compound | acute anorectic effect on day 1 ([1]; RAMP1/3 KO mice, cagrilintide 3, sCT 150 nmol/kg s.c.) | weight gain on subchronic treatment ([1]; WT mice, 150 nmol/kg/d s.c.) | Food intake on Day 1 ([1]; WT mice, cagrilintide 3, sCT 150 nmol/kg s.c., mean ± SEM, n = 7–8/group) [g] | Predicted (LS) mean diff., AP cFos after square root transformation ([2]; RAMP 1/3 KO, Vehicle vs. sCT (3 nmol/kg), Tukey) | Predicted (LS) mean diff., AP cFos after square root transformation ([2]; RAMP 1/3 KO, Vehicle vs. sCT (150 nmol/kg), Tukey) | Predicted (LS) mean diff., AP cFos after square root transformation ([2]; RAMP 1/3 KO, sCT (3 nmol/kg) vs. Cagrilintide (3 nmol/kg), Tukey) | Predicted (LS) mean diff., AP cFos after square root transformation ([2]; RAMP 1/3 KO, sCT (3 nmol/kg) vs. sCT (150 nmol/kg), Tukey) | Predicted (LS) mean diff., AP cFos after square root transformation ([2]; RAMP 1/3 KO, sCT (150 nmol/kg) vs. Cagrilintide (3 nmol/kg), Tukey) | Predicted (LS) mean diff., AP cFos after square root transformation ([2]; WT, Vehicle vs. sCT (3 nmol/kg), Tukey) | Predicted (LS) mean diff., AP cFos after square root transformation ([2]; WT, Vehicle vs. sCT (150 nmol/kg), Tukey) | Predicted (LS) mean diff., AP cFos after square root transformation ([2]; WT, sCT (3 nmol/kg) vs. Cagrilintide (3 nmol/kg), Tukey) | Predicted (LS) mean diff., AP cFos after square root transformation ([2]; WT, sCT (3 nmol/kg) vs. sCT (150 nmol/kg), Tukey) | Predicted (LS) mean diff., AP cFos after square root transformation ([2]; WT, sCT (150 nmol/kg) vs. Cagrilintide (3 nmol/kg), Tukey) | Predicted (LS) mean diff., AP cFos after square root transformation ([2]; sCT (3 nmol/kg), WT vs. RAMP 1/3 KO) | Predicted (LS) mean diff., AP cFos after square root transformation ([2]; sCT (150 nmol/kg), WT vs. RAMP 1/3 KO) | residence time (dissociation) ([3]; comparable for all AMYRs / all receptors) [min] | reduction of relative lean mass in KO mice compared to WT [4] [%] | effect on body composition ([4]; WT mice) | binding to AMYRs [3]
CC(C)C[C@H](NC(=O)[C@H](CCCCN)NC(=O)CNC(=O)[C@H](CC(C)C)NC(=O)[C@@H](NC(=O)[C@@H]1CSSC[C@H](N)C(=O)N[C@@H](CO)C(=O)N[C@@H](CC(N)=O)C(=O)N[C@@H](CC(C)C)C(=O)N[C@@H](CO)C(=O)N[C@@H]([C@@H](C)O)C(=O)N1)C(C)C)C(=O)N[C@@H](CO)C(=O)N[C@@H](CCC(N)=O)C(=O)N[C@@H](CCC(=O)O)C(=O)N[C@@H](CC(C)C)C(=O)N[C@@H](Cc1c[nH]cn1)C(=O)N[C@@H](CCCCN)C(=O)N[C@@H](CC(C)C)C(=O)N[C@@H](CCC(N)=O)C(=O)N[C@H](C(=O)N[C@@H](Cc1ccc(O)cc1)C(=O)N1CCC[C@H]1C(=O)N[C@@H](CCCNC(=N)N)C(=O)N[C@H](C(=O)N[C@@H](CC(N)=O)C(=O)N[C@H](C(=O)NCC(=O)N[C@@H](CO)C(=O)NCC(=O)N[C@H](C(=O)N1CCC[C@H]1C(N)=O)[C@@H](C)O)[C@@H](C)O)[C@@H](C)O)[C@@H](C)O [sCT, salmon calcitonin] | no effect | approx. 2 g | 1.5 ± 0.2 | -8.457 | -9.262 | 4.579 | -0.8046 | 5.384 | -8.131 | -7.632 | 1.906 | 0.4986 | 1.408 | -0.1355 | -1.439 | 45 to 60 | 15 | no effect | 
Davalintide |  |  |  |  |  |  |  |  |  |  |  |  |  |  |  |  |  |  | binds irreversibly
